Results taken from PubChem BioAssay AID316 (DTP/NCI, 2004).
Where “and” joins values, the source holds several entries; their conditions need not be identical. Equal entries are not always repeated. Inconclusive results and toxic doses are left out.

Tested on: P1534 leukemia ip, CD2F1 mice, survival T/C
Assay: NCI In Vivo Anticancer Drug Screen. Data for tumor model P1534 Leukemia (intraperitoneal) in CD2F1 (CDF1) mice
Details: endpoint: mean survival time, higher = longer survival
Protocol: The antitumor activity of compounds was measured in mice bearing transplantable tumors. Survival or tumor size were measured and the results are expressed as the measurement made in the treated group (T) divided by the measurement made in the vehicle treated control group (C). The tumor model used in this assay is P1534 Leukemia (intraperitoneal) in CD2F1 (CDF1) mice

[1] = dose: 3.75 mg/kg/injection, schedule: Q01DX010 (ip), vehicle: saline
[2] = dose: 7.5 mg/kg/injection, schedule: Q01DX010 (ip), vehicle: saline
[3] = dose: 15.0 mg/kg/injection, schedule: Q01DX010 (ip), vehicle: saline
[4] = dose: 50.0 mg/kg/injection, schedule: Q01DX010 (ip), vehicle: saline
[5] = dose: 100.0 mg/kg/injection, schedule: Q01DX010 (ip), vehicle: saline
[6] = dose: 25.0 mg/kg/injection, schedule: Q01DX010 (ip), vehicle: saline
[7] = dose: 200.0 mg/kg/injection, schedule: Q01DX010 (ip), vehicle: saline
[8] = dose: 400.0 mg/kg/injection, schedule: Q01DX010 (ip), vehicle: saline
[9] = dose: 15.6 mg/kg/injection, schedule: Q01DX010 (ip), vehicle: saline
[10] = dose: 31.3 mg/kg/injection, schedule: Q01DX010 (ip), vehicle: saline
[11] = dose: 62.5 mg/kg/injection, schedule: Q01DX010 (ip), vehicle: saline
[12] = dose: 125.0 mg/kg/injection, schedule: Q01DX010 (ip), vehicle: saline

CC[C@]12C=CCN3CC[C@@]4(c5ccc(OC)cc5N(C)[C@H]4[C@@](O)(C(=O)OC)[C@@H]1O)[C@@H]32
T/C [1]: 93 % of control
T/C [2]: 100 % of control
T/C [3]: 93 % of control
T/C (dose: 30.0 mg/kg/injection, schedule: Q01DX010 (ip), vehicle: saline): 100 % of control
T/C [4]: 96 % of control
T/C [5]: 92 % of control

NNC(=O)c1cnccn1
T/C (dose: 40.0 mg/kg/injection, schedule: Q01DX010 (ip), vehicle: water): 121 % of control
T/C (dose: 80.0 mg/kg/injection, schedule: Q01DX010 (ip), vehicle: water): 110 % of control and 97 % of control

Cc1cc2nc3c(=O)[nH]c(=O)nc-3n(CC(O)C(O)C(O)C(O)CO)c2cc1C (stereo not drawn)
T/C [6]: 111 % of control
T/C [4]: 107 % of control and 100 % of control
T/C [5]: 107 % of control and 111 % of control
T/C [7]: 111 % of control

CC(=O)O[C@H]1C(=O)[C@@]2(C)[C@H]([C@H](OC(=O)c3ccccc3)[C@]3(O)C[C@H](OC(=O)[C@H](O)[C@@H](NC(=O)c4ccccc4)c4ccccc4)C(C)=C1C3(C)C)[C@]1(OC(C)=O)CO[C@@H]1C[C@@H]2O
T/C (dose: 1.88 mg/kg/injection, schedule: Q01DX010 (ip), vehicle: saline): 300 % of control
T/C [1]: 300 % of control
T/C [2]: 250 % of control
T/C [3]: 89 % of control

O=C(O)c1[nH]c(=O)[nH]c(=O)c1F
T/C (dose: 1.25 mg/kg/injection, schedule: Q01DX010 (ip), vehicle: saline): 106 % of control
T/C (dose: 5.0 mg/kg/injection, schedule: Q01DX010 (ip), vehicle: saline): 236 % of control
T/C (dose: 10.0 mg/kg/injection, schedule: Q01DX010 (ip), vehicle: saline): 106 % of control

COc1ccc2c(c1OC)CN1CCc3cc4c(cc3C1C2)OCO4 (stereo not drawn)
T/C [4]: 107 % of control
T/C [5]: 92 % of control
T/C [7]: 88 % of control
T/C [8]: 100 % of control

C[C@]12CCC(=O)C[C@H]1CC[C@@H]1[C@@H]2CC[C@@]2(C)[C@H]1CC[C@]2(C)O
T/C (dose: 50.0 mg/kg/injection, schedule: Q01DX010 (sc), vehicle: steriod suspending solution): 100 % of control
T/C (dose: 100.0 mg/kg/injection, schedule: Q01DX010 (sc), vehicle: steriod suspending solution): 100 % of control
T/C (dose: 200.0 mg/kg/injection, schedule: Q01DX010 (sc), vehicle: steriod suspending solution): 96 % of control
T/C (dose: 400.0 mg/kg/injection, schedule: Q01DX010 (sc), vehicle: steriod suspending solution): 96 % of control

C[n+]1c2ccccc2nc2c(N)cc(N)cc21
T/C (dose: 5.2 mg/kg/injection, schedule: Q01DX010 (ip), vehicle: saline): 114 % of control

[N-]=[N+]=CC(=O)NCC(=O)NN
T/C (dose: 100.0 mg/kg/injection, schedule: Q01DX010 (ip), vehicle: water): 103 % of control
T/C (dose: 200.0 mg/kg/injection, schedule: Q01DX010 (ip), vehicle: water): 120 % of control
T/C (dose: 300.0 mg/kg/injection, schedule: Q01DX010 (ip), vehicle: water): 123 % of control

OC(CBr)C(O)C(O)C(O)CBr (stereo not drawn)
T/C (dose: 12.5 mg/kg/injection, schedule: Q01DX010 (ip), vehicle: saline): 103 % of control
T/C [6]: 103 % of control
T/C [4]: 103 % of control
T/C [5]: 103 % of control

C[C@]12C=CC(=O)C=C1CC[C@@H]1[C@@H]2C(=O)C[C@@]2(C)[C@H]1CC[C@]2(O)C(=O)CO
T/C (dose: 3.13 mg/kg/injection, schedule: Q01DX010 (sc), vehicle: steriod suspending solution): 99 % of control
T/C (dose: 6.25 mg/kg/injection, schedule: Q01DX010 (sc), vehicle: steriod suspending solution): 95 % of control
T/C (dose: 10.0 mg/kg/injection, schedule: Q01DX005 (sc), vehicle: steriod suspending solution): 105 % of control and 109 % of control and 100 % of control
T/C (dose: 12.5 mg/kg/injection, schedule: Q01DX010 (sc), vehicle: steriod suspending solution): 88 % of control
T/C (dose: 50.0 mg/kg/injection, schedule: Q01DX005 (sc), vehicle: steriod suspending solution): 107 % of control and 108 % of control and 110 % of control
T/C (dose: 100.0 mg/kg/injection, schedule: Q01DX005 (sc), vehicle: steriod suspending solution): 108 % of control and 99 % of control and 100 % of control
T/C (dose: 200.0 mg/kg/injection, schedule: Q01DX005 (sc), vehicle: steriod suspending solution): 86 % of control and 102 % of control
T/C (dose: 250.0 mg/kg/injection, schedule: Q01DX005 (sc), vehicle: steriod suspending solution): 90 % of control and 93 % of control

COc1cc(C[C@H]2c3cc(OC)c(OC)cc3CCN2C)c(Oc2cc3c(cc2OC)-c2c(OC)c(OC)cc4c2[C@H](C3)N(C)CC4)cc1OC
T/C [6]: 92 % of control
T/C [4]: 92 % of control

COCCOC
T/C (dose: 300.0 mg/kg/injection, schedule: Q01DX010 (ip), vehicle: saline): 100 % of control
T/C (dose: 450.0 mg/kg/injection, schedule: Q01DX010 (ip), vehicle: saline): 107 % of control
T/C (dose: 675.0 mg/kg/injection, schedule: Q01DX010 (ip), vehicle: saline): 103 % of control

Clc1[nH]nc2ccccc12
T/C (dose: 7.8 mg/kg/injection, schedule: Q01DX010 (ip), vehicle: saline): 100 % of control
T/C [9]: 96 % of control
T/C [10]: 96 % of control
T/C [11]: 107 % of control and 100 % of control
T/C [12]: 92 % of control

CCCCNc1ncnc2c1cnn2C
T/C [10]: 100 % of control
T/C [11]: 88 % of control and 100 % of control

CC(=O)Nc1c(Cl)cc2c(c1Cl)Cc1cc([N+](=O)[O-])ccc1-2
T/C [9]: 107 % of control
T/C [10]: 107 % of control
T/C [11]: 107 % of control and 100 % of control
T/C [12]: 107 % of control

NCC(=O)NCCCCCCNCCCCCCNC(=O)CN
T/C [4]: 100 % of control
T/C [5]: 100 % of control
T/C [7]: 100 % of control
T/C [8]: 100 % of control
